Patent EP0531640B1, “Antibiotic LL-E19020 Gamma” (F. HOFFMANN-LA ROCHE AG, priority 1991, dated 1993)

Experiment: Growth of chickens and efficiency of feed utilization
Assay type: in vivo, Peterson X Arbor Acres chicks
Settings: chicks, 200 ppm in the diet (positive control), day 1 to day 14
Protocol: In this test, one day old Peterson X Arbor Acres chicks are sorted into equal weight groups of 5 males and 5 females per cage. Cages are randomized to treatment groups with six replicates per treatment. The test compound is evaluated 25 ppm in the diet against chicks receiving a non-medicated diet and a diet containing 200 ppm of penicillin as a positive control.
The cages are weighed at day 1 and at day 14 and feed consumption is measured on weigh days. Feed and water are offered ad libitum and lighting and supplemental heat are provided continuously.
The poultry diet employed in the test is as follows:
The vitamin-amino acid premix in the above feed composition is prepared from the following formulation. The expressions of quantity relate to units per kilogram of the finished feed composition.

Penicillin [reference compound]
Weight Gain: 344 g | Weight Gain, % improvement over control: 7.2% | feed conversion: 1.317 | feed conversion, % improvement over control: 0.4%
